{"source": "patent US20260041723A1", "about": "“BACTERIOPHAGE COMPOSITIONS FOR TREATING STAP[…]” (priority 2020, published 2026)", "system": "S. aureus strains", "format": "cell-based", "conditions": "resistant or intermediate strains, in the presence of AP-SA02", "method": "Grey boxes indicate lines on graph depicted in FIG. 5B. […] Vancomycin, 16 μg/mL; AP-SA02, 0.1 pg/mL.\nFIG. 6A is data showing bacterial growth measured by turbidity (absorbance at 600 nm) in the presence of AP-SA02 and vancomycin in a checkerboard assay. Grey boxes show lines on graph depicted in FIG. 6B. […] Vancomycin, 2 μg/mL.\nStandard therapy for subjects with a S. aureus infection includes vancomycin and daptomycin. Since subjects who receive AP-SA02 are likely to be on these therapies, the effect of AP-SA02 on these antibiotics and vice versa was assessed. Using the standard checkerboard assay, the minimum inhibitory concentration of each antimicrobial alone or in combination with each other, was used to calculate whether two antimicrobials are synergistic, antagonistic, or indifferent (Table 3).", "data": [{"smiles": "CN[C@H](CC(C)C)C(=O)N[C@H]1C(=O)N[C@@H](CC(N)=O)C(=O)N[C@H]2C(=O)N[C@H]3C(=O)N[C@H](C(=O)N[C@H](C(=O)O)c4cc(O)cc(O)c4-c4cc3ccc4O)[C@H](O)c3ccc(c(Cl)c3)Oc3cc2cc(c3O[C@@H]2O[C@H](CO)[C@@H](O)[C@H](O)[C@H]2O[C@H]2C[C@](C)(N)[C@H](O)[C@H](C)O2)Oc2ccc(cc2Cl)[C@H]1O", "note": "[vancomycin]", "values": [{"measurement": "breakpoint for vancomycin in the presence of phage", "result": "0.5 to 2", "unit": "µg/mL"}]}]}
